Assay results: patent publication US20220346382A1, “COMPOSITION FOR TREATING AND PREVENTING BACTERIAL GROWTH ON A SUBSTRATE” (PETROLIAM NASIONAL BERHAD (PETRONAS), priority 2019, published 2022)

What was measured:
[1] = system: bacteria of produced water sample B04S; assay: Cell dry weight of cultured formulations (NACE TM0194-2014); type: cell-based; conditions: Day 7, ambient temperature, static
Source text: Bacteria were isolated from produced water samples from an oil field (denoted as samples B04S and B24) in accordance with NACE TM0194-2014.
In sample B04S, Bacillus sp., Bacillus thuringiensis and Marine actinomycetes were identified. In sample B24, Bacillus thuringiensis and Marine actinomycetes were identified. Marine actinomycete was identified to be the main species that support biofilm stability and a growth environment for other species including sulphate-reducing bacteria (SRB).
(§1) Formulations were prepared by mixing the listed chemical components in the stated concentrations with produced water sample BO4S in a flask (Table 1). These formulations were tested in subsequent examples for biocide activity.
The formulations in Example 1 were cultured for seven days at ambient temperatures and static conditions in glass vials. Subsequently the cell dry weight of the formulations was quantified in accordance with NACE TM0194-2014. The cell dry weight for each formulation was reported in and/or converted to g/mL for comparison (FIG. 1).

[2] = system: bacteria of produced water sample B04S; assay: Viable cell count from suspension cells by hemocytometer (ASTM E 2315-03); type: cell-based
Description: as §1
In a typical procedure, a glass hemocytometer and coverslip was cleaned with alcohol prior to use. The coverslip was moisturised with water and affixed to the hemocytometer. The presence of Newton's refraction rings under the coverslip indicated proper adhesion.
The flasks containing the formulations were gently swirled to ensure that the cells were evenly distributed. Before the cells settled to the bottom of the flasks, 0.5 mL of a cell suspension was transferred out to an Eppendorf tube using a 5 mL sterile pipette. Trypan blue (three to five drops) was added to the tube. 100 μL of the Trypan blue-treated cell suspension was pipetted and transferred to the hemocytometer. If a glass hemocytometer was used, both chambers were gently filled underneath the coverslip, allowing the cell suspension to be drawn out by capillary action. If a disposable hemocytometer was used, the cell suspension was pipetted into the well of the counting chamber, allowing capillary action to draw it inside. A microscope was used to focus on the grid lines of the hemocytometer with a 10× objective.

| Molecule | lower cell dry weight as compared to formulation THPS [1] [%] | lower cell count as compared to THPS only ([2]; Day 5, sample B04S) [%] | lower cell count as compared to THPS only ([2]; Day 7, sample B04S) [%] | suppression of bacteria growth ([2]; 100 ppm, Day 7) |
| --- | --- | --- | --- | --- |
| N[C@H](Cc1c[nH]c2ccccc12)C(=O)O [TT, D-Tryptophan] | 40 | 77 | 78 | – |
| tetrakis hydroxymethyl phosphonium sulfate [THPS, reference compound] | – | – | – | could not suppress bacteria growth |
